In patent US20060229433A1, “Modified antiviral peptides with increased activity and cell membrane affinity” (priority 2003, published 2006):
Several values for one entry are separate records, joined by “and”; a condition that tells them apart may be missing. Equal values may be shown once. Bridge positions count the residues as written; N and C are the ends. Square brackets hold non-standard residues; d marks the D form. Peptide text beside a SMILES is read from it. I, II: the chains in the order shown. Ava = NCCCCC(=O)O

What was measured:
[1] = system: HIV-1 NL 4-3; test: HIV-1 infection of C8166 cells (syncytia formation, p24 ELISA) with HIV-1 NL 4-3; assay type: cell-based; conditions: for IC50: C8166 cells, HIV-1 subtype B NL 4-3, Table 3
Protocol: (§1) HIV-1 NL 4-3 isolate (Adachi et al., 1986; Barré-Sinoussi et al., 1983) and highly cytopathic Zairian HIV-1 NDK isolate (Ellrodt et al., 1984) was propagated in permissive CEM cells (Nara et al., 1987). Uninfected CEM and C8166 (Salahuddin et al., 1983) were maintained in RPMI 1640 (R10) with ultraglutamine (cambrex, Vervier, Belgium), penicillin (100 U/ml), streptomycin (100 μg/ml), and 10% heat-inactivated fetal calf serum (Cambrex).
(§2) Samples of 3×10^5/100 μL C8166 cells were preincubated in 96-well microtiter plates in culture medium containing various concentrations of peptide. After a 1 h treatment at 37° C., 100 μl of diluted viral solution of HIV-1 was added. The cells were exposed to the virus for 1 h at 37° C. at a multiplicity of infection of 1000 TCID50 per ml. The cells were washed three times and cultured at 3×10^5/ml of R10 with the treatment in 24-well plates incubated at 37° C. C8166 culture medium was replaced at Day-4 post-infection. The treatment was permanent before virus adsorption, during virus adsorption and after infection. Assays on C8166 cells have been performed at least twice and in duplicate. Toxicity was evaluated by daily cell count and trypan-blue exclusion assay. Infection of C8166 T-cells with HIV-1 was assessed by virus-induced cytopathic effects (syncytia formation) and by quantification of cell free p24 viral protein in the culture supernatants. Measurements of HIV-1 p24^gag concentration in the culture supernatants were achieved by ELISA (ALLIANCE® HIV-1 p24 kit, Perkin Elmer, life sciences, USA).

[2] = system: HIV-1 NL 4-3; test: Infection of human peripheral blood lymphocytes (PBL) with NL 4-3 strain, p24 ELISA; assay type: cell-based
Protocol: Peripheral blood lymphocytes from an HIV-1 negative donor were grown as described earlier, maintained in RPMI 1640 with ultraglutamine, supplemented with IL2 (20 μg/ml), penicillin (100 U/ml), streptomycin (100 μg/ml), and 10% heat-inactivated fetal calf serum. Cells were stimulated three days in the medium supplemented with phytohemagglutinin (20 U/ml PHA P, DIFCO, Detroit Mich.).
Samples of 10^6/100 μL PBL cells were preincubated in 96-well microtiter plates in culture medium containing various concentrations of peptides. After a 1 h treatment at 37° C., 100 μl of diluted viral solution of HIV-1 was added. The cells were exposed to the virus for 1 h at 37° C. at a multiplicity of infection of 1000 TCID50 per ml. The cells were washed three times and cultured at […] of medium with the treatment in 24-well plates incubated at 37° in culture medium with the peptides in 5% CO2. The treatment was permanent before virus adsorption, during virus adsorption and after infection. The PBL culture medium was replaced every 3-4 days during three weeks always in the presence of peptide. The cell viability was assessed by cell counts and trypan-blue exclusion assay. The viral production in the culture supernatant was quantified by p24 ELISA test, as described earlier. All the experiments have been done in blind-tests. Tests have been done in duplicate.

[3] = system: HIV-1 89.6 subtype B dualtropic (X4R5); conditions: PBMC, Table 5
[4] = system: HIV-1 NL 4-3; test: HIV-1 infection of C8166 cells (syncytia formation, p24 ELISA) with HIV-1 NL 4-3; assay type: cell-based; parameters: key: ++, +, (+), (+)− and − represent decreasing numbers of syncitia formed.; ++, +, (+), (+)− and − represent decreasing numbers of syncitia formed.; ++, +, (+), (+)− and − represent decreasing numbers of syncitia formed.; ++, +, (+), (+)− and − represent decreasing numbers of syncitia formed.; ++, +, (+), (+)− and − represent decreasing numbers of syncitia formed; conditions: Table 2
Protocol: as §1, §2

[5] = system: HIV-1 NL 4-3; test: as above; assay type: cell-based; parameters: key: ++, +, (+), (+)− and − represent decreasing numbers of syncitia formed; ++, +, (+), (+)− and − represent decreasing numbers of syncitia formed; ++, +, (+), (+)− and − represent decreasing numbers of syncitia formed; ++, +, (+), (+)− and − represent decreasing numbers of syncitia formed; ++, +, (+), (+)− and − represent decreasing numbers of syncitia formed; conditions: Table 1
Protocol: as §1, §2

CC(C)C[C@H](NC(=O)[C@@H]1CCCN1C(=O)[C@H](CO)NC(=O)[C@H](Cc1ccc(O)cc1)NC(=O)CNC(=O)[C@H](CCC(N)=O)NC(=O)[C@@H](N)CCCNC(=N)N)C(=O)NCCCC[C@H](NC(=O)[C@H](CC(C)C)NC(=O)[C@@H]1CCCN1C(=O)[C@H](CO)NC(=O)[C@H](Cc1ccc(O)cc1)NC(=O)CNC(=O)[C@H](CCC(N)=O)NC(=O)[C@@H](N)CCCNC(=N)N)C(=O)NCCCCC(=O)O [RL dimer valeric acid, (RQGYSPL)2-K—NHCH2CH2CH2CH2COOH] (I: H-RQGYSPLK[Ava]-OH / II: H-RQGYSPL; amide I:8-II:C; N-terminus assumed)
IC50 [1]: 0.05 µM | IC50 ([2]; PBL, NL 4-3 strain, Table 4): 0.005 µM | IC100 ([2]; PBL, NL 4-3 strain, Table 4): 0.05 µM | IC50 [3]: 0.01 µM | IC100 [3]: 0.5 µM

CC(C)C[C@H](NC(=O)[C@@H]1CCCN1C(=O)[C@H](CO)NC(=O)[C@H](Cc1ccc(O)cc1)NC(=O)CNC(=O)[C@H](CCC(N)=O)NC(=O)[C@@H](N)CCCNC(=N)N)C(=O)NCCCCC(=O)O [RL monomer valeric acid, RQGYSPL-NHCH2CH2CH2CH2COOH] (H-RQGYSPL[Ava]-OH)
IC50 [1]: 0.05 µM | IC50 ([2]; PBL, NL 4-3 strain, Table 4): 0.01 µM | IC100 ([2]; PBL, NL 4-3 strain, Table 4): 1 µM | IC50 [3]: 0.01 µM | IC100 [3]: 0.1 µM

CC(C)C[C@H](NC(=O)[C@@H]1CCCN1C(=O)[C@H](CO)NC(=O)[C@H](Cc1ccc(O)cc1)NC(=O)CNC(=O)[C@H](CCC(N)=O)NC(=O)[C@@H](N)CCCNC(=N)N)C(=O)NCCCC[C@H](NC(=O)[C@H](CC(C)C)NC(=O)[C@@H]1CCCN1C(=O)[C@H](CO)NC(=O)[C@H](Cc1ccc(O)cc1)NC(=O)CNC(=O)[C@H](CCC(N)=O)NC(=O)[C@@H](N)CCCNC(=N)N)C(=O)NCCCC[C@H](NC(=O)[C@H](CCCCNC(=O)[C@H](CC(C)C)NC(=O)[C@@H]1CCCN1C(=O)[C@H](CO)NC(=O)[C@H](Cc1ccc(O)cc1)NC(=O)CNC(=O)[C@H](CCC(N)=O)NC(=O)[C@@H](N)CCCNC(=N)N)NC(=O)[C@H](CC(C)C)NC(=O)[C@@H]1CCCN1C(=O)[C@H](CO)NC(=O)[C@H](Cc1ccc(O)cc1)NC(=O)CNC(=O)[C@H](CCC(N)=O)NC(=O)[C@@H](N)CCCNC(=N)N)C(=O)NCCCC[C@H](NC(=O)[C@H](CCCCNC(=O)[C@H](CCCCNC(=O)[C@H](CC(C)C)NC(=O)[C@@H]1CCCN1C(=O)[C@H](CO)NC(=O)[C@H](Cc1ccc(O)cc1)NC(=O)CNC(=O)[C@H](CCC(N)=O)NC(=O)[C@@H](N)CCCNC(=N)N)NC(=O)[C@H](CC(C)C)NC(=O)[C@@H]1CCCN1C(=O)[C@H](CO)NC(=O)[C@H](Cc1ccc(O)cc1)NC(=O)CNC(=O)[C@H](CCC(N)=O)NC(=O)[C@@H](N)CCCNC(=N)N)NC(=O)[C@H](CCCCNC(=O)[C@H](CC(C)C)NC(=O)[C@@H]1CCCN1C(=O)[C@H](CO)NC(=O)[C@H](Cc1ccc(O)cc1)NC(=O)CNC(=O)[C@H](CCC(N)=O)NC(=O)[C@@H](N)CCCNC(=N)N)NC(=O)[C@H](CC(C)C)NC(=O)[C@@H]1CCCN1C(=O)[C@H](CO)NC(=O)[C@H](Cc1ccc(O)cc1)NC(=O)CNC(=O)[C@H](CCC(N)=O)NC(=O)[C@@H](N)CCCNC(=N)N)C(=O)NCCC(=O)O [RL, (RQGYSPL)8-K4-K2-K-βA-OH, reference compound]
IC50 [1]: 0.01 µM | IC50 ([2]; PBL, NL 4-3 strain, Table 4): 0.005 µM | IC100 ([2]; PBL, NL 4-3 strain, Table 4): 0.1 µM | IC50 [3]: 0.006 µM | IC100 [3]: 0.05 µM

C[C@H](NC(=O)[C@H](CCCNC(=N)N)NC(=O)CNC(=O)[C@@H]1CCCN1C(=O)CN)C(=O)N[C@@H](Cc1ccccc1)C(=O)NCCCC[C@H](NC(=O)[C@H](Cc1ccccc1)NC(=O)[C@H](C)NC(=O)[C@H](CCCNC(=N)N)NC(=O)CNC(=O)[C@@H]1CCCN1C(=O)CN)C(=O)NCCCCC(=O)O [SPC3 dimer valeric acid, (GPGRAF)2-K—NHCH2CH2CH2CH2COOH] (I: H-GPGRAFK[Ava]-OH / II: H-GPGRAF; amide I:7-II:C; N-terminus assumed)
IC50 [1]: 0.05 µM | IC50 [3]: 0.008 µM | IC100 [3]: 0.5 µM

SPC3-Tat [S3]
P 24 ([1]; Day 4, 0.1 μM, Table 2): 61 pg/mL and 33 pg/mL | P 24 ([1]; Day 4, 2 μM, Table 1): NEG | P 24 ([1]; Day 4, 5 μM, Table 1): NEG | P 24 ([1]; Day 7, 0.05 μM, Table 2): 3664 pg/mL and 2064 pg/mL | P 24 ([1]; Day 7, 0.1 μM, Table 2): 787 pg/mL and 496 pg/mL | IC100 ([2]; on PBL): 0.1 µM | Day 4 syncitia formed ([4]; 0.05 μM): (+) | Day 5 syncitia formed ([4]; 0.05 μM): + | Day 6 syncitia formed ([4]; 0.05 μM): ++ | Day 7 syncitia formed ([4]; 0.05 μM): ++ | Day 4 syncitia formed ([4]; 0.1 μM): (+) | Day 5 syncitia formed ([4]; 0.1 μM): − and + | Day 6 syncitia formed ([4]; 0.1 μM): + | Day 7 syncitia formed ([4]; 0.1 μM): ++ | Day 4 syncitia formed ([4]; 0.5 μM): − | Day 5 syncitia formed ([4]; 0.5 μM): − | Day 6 syncitia formed ([4]; 0.5 μM): − | Day 7 syncitia formed ([4]; 0.5 μM): (+) and + | Day 4 syncitia formed ([4]; 1 μM): − | Day 5 syncitia formed ([4]; 1 μM): − | Day 6 syncitia formed ([4]; 1 μM): − | Day 7 syncitia formed ([4]; 1 μM): − | Day 4 syncitia formed ([5]; 0.5 μM): − | Day 5 syncitia formed ([5]; 0.5 μM): − | Day 6 syncitia formed ([5]; 0.5 μM): − | Day 7 syncitia formed ([5]; 0.5 μM): + and (+) | Day 4 syncitia formed ([5]; 1 μM): − | Day 5 syncitia formed ([5]; 1 μM): − | Day 6 syncitia formed ([5]; 1 μM): − | Day 7 syncitia formed ([5]; 1 μM): − and + | Day 4 syncitia formed ([5]; 2 μM): − | Day 5 syncitia formed ([5]; 2 μM): − | Day 6 syncitia formed ([5]; 2 μM): − | Day 7 syncitia formed ([5]; 2 μM): − | Day 4 syncitia formed ([5]; 5 μM): − | Day 5 syncitia formed ([5]; 5 μM): − | Day 6 syncitia formed ([5]; 5 μM): − | Day 7 syncitia formed ([5]; 5 μM): −
